In patent US10028992B2, “Methods of treating muscular dystrophy” (BOARD OF REGENTS OF THE NEVADA SYSTEM OF HIGHER EDUCATION …, priority 2012, dated 2018):

System: α7 integrin promoter
Test: muscle cell-based assay: α7βgal+/− myoblasts/myotubes, LacZ reporter, β-galactosidase cleavage of FDG
Set-up: species or system mouse
Settings: for EC50: Mus musculus, read-out: Fit LogAC50 (converted); for Score: Table 12 compound data; for Fit Curve Class: curve class number, key not given; for Fit Zero Activity [%]: activity at zero concentration
Procedure: An α7 integrin null mouse was produced in which exon 1 of the gene encoding the α7 integrin was replaced by the LacZ reporter. In these mice, all the transcriptional regulatory elements of the α7 integrin promoter were retained, allowing β-galactosidase to report expression of 7 integrin. A primary myoblast cell line (designated α7βgal^+/−) isolated from 10 day old α7^+/− pups were analyzed for the ability of β-galactosidase to report α7 integrin expression. α7βgal^+/− myoblasts were differentiated and subjected to X-gal staining and western analysis (FIGS. 1A and 1B).
The activity of the α7 integrin promoter was measured by β-galactosidase cleavage of the non-fluorescent compound fluorescein di-β-D-galactopyranoside (FDG) to fluorescein. This assay was used to screen compound libraries to identify molecules that up-regulate α7 integrin expression in muscle.
Also evaluated was the effect of various isoforms of laminin and the ligand for α7β1 integrin on integrin expression. Positive hits were subjected to dose-response analysis, western analysis and a myostatin counterscreen (a negative regulator of muscle growth).

[1] = given as log AC50 (negative values)

SMILES | EC50 [1] | Score | Fit Curve Class | Fit HillSlope (curve fit) | Fit Zero Activity [%] (curve fit) | Fit Infinite Activity [%] (curve fit, activity at infinite concentration) | Fit LogAC50 [1]
Cn1ccc(C(=O)Nc2cccnc2Cl)n1 [Compound 140] | 10 µM | 42 | 2.2 | 2.7868 | −4.0391% | – | –
COC(=O)c1ccc(C2C(C(=O)c3cc4ccccc4o3)=C(O)C(=O)N2CCN2CCOCC2)cc1 (stereo not shown) [Compound 141] | 10 µM | 42 | 2.1 | 4.9549 | −17.8968% | – | –
COc1cc(NC(=O)C2C3C=CC(C3)C2C(=O)O)ccc1NC(=O)c1ccccc1 (stereo not shown) [Compound 142] | 8.91 µM | 42 | 2.1 | 2.4064 | −18.7775% | – | –
COCc1c(C(=O)N/N=C(\C)c2ccc(OCc3ccccc3)cc2)nnn1-c1nonc1N [Compound 143] | 10 µM | 42 | 2.1 | 4.4495 | 4.6719% | – | –
O=C(Nc1ccc(N2CCN(C(=O)c3ccccc3F)CC2)cc1)c1cncc(Br)c1 [Compound 144] | 12.6 µM | 42 | 2.1 | 4.095 | 9.7776% | – | –
COc1cc(NC(=O)CN(C)S(=O)(=O)c2ccc3c(c2)CC(C)N3C(C)=O)cc(OC)c1OC (stereo not shown) [Compound 145] | 10 µM | 42 | 2.2 | 4.9549 | 0.4668% | – | –
CC(=O)c1ccc(N(C(=O)CNC(=O)c2ccco2)C(C(=O)NC2CCCC2)c2ccc(C)o2)cc1 (stereo not shown) [Compound 146] | 10 µM | 42 | 2.1 | 4.9549 | – | – | –
Cc1nnc(NC(=O)CSc2nnc(CCNC(=O)c3ccccc3F)n2C)s1 [Compound 147] | 11.2 µM | 42 | 2.1 | 2.0937 | 1.0531% | – | –
COc1ccc(CCNC(=O)Cn2nnc(C(=O)Nc3ccc(Br)cc3)c2N)cc1OC [Compound 148] | 11.2 µM | 42 | 2.1 | 2.3531 | −28.7719% | – | –
C/C(=N\NC(=O)c1cc(C)oc1C)c1ccc2ccccc2c1 [Compound 149] | 8.91 µM | 42 | 2.2 | 1.111 | −1.9678% | – | –
CC(C)c1ccc(NC(=O)CN2C(=O)c3ccccc3S2(=O)=O)cc1 [Compound 150] | 10 µM | 42 | 2.2 | 4.5045 | −0.2112% | – | –
CCCCC(C(=O)NC1CCCC1)N(C(=O)c1snc(C(N)=O)c1N)c1ccc(C)cc1 (stereo not shown) [Compound 151] | 10 µM | 42 | 2.1 | 3.132 | −26.3814% | – | –
COc1ccc(S(=O)(=O)Nc2ccc(S(=O)(=O)Nc3nccs3)cc2)cc1 [Compound 152] | 12.6 µM | 42 | 2.2 | 1.1341 | −8.4801% | – | –
Cc1cc(C(=O)Nc2cccc3ccccc23)c(C)o1 [Compound 153] | 7.94 µM | 42 | 2.1 | 1.5095 | −21.2671% | – | –
CC1(C)Cc2c(cnn2-c2cccc(F)c2)C(NC(=O)CCc2cnccn2)C1 (stereo not shown) [Compound 154] | 3.16 µM | 42 | 2.1 | 0.9 | −46.353% | – | –
Cc1c(C(=O)N2CCCCC2)c(S(=O)(=O)Nc2cccc(Br)c2)c(C)n1C [Compound 155] | 10 µM | 42 | 2.1 | 3.99 | −32.1225% | – | –
O=S(=O)(N/C(=N/C1CCCCC1)c1ccccc1F)c1ccccc1 [Compound 156] | 10 µM | 42 | 2.2 | 2.5334 | −0.0336% | – | –
O=[N+]([O-])c1cccc(S(=O)(=O)N2CCN(S(=O)(=O)N3CCOCC3)CC2)c1 [Compound 158] | 10 µM | 42 | 2.2 | 1.9282 | −0.5234% | – | –
CC(=O)Nc1ccc(NC(=O)c2cc(=O)c3cc(C)cc(C)c3o2)cc1 [Compound 159] | 11.2 µM | 42 | 2.1 | 4.095 | −2.9033% | – | –

SMILES | EC50 [1] | Score | Fit Curve Class | Fit HillSlope (curve fit) | Fit Zero Activity [%] (curve fit) | Fit Infinite Activity [%] (curve fit, activity at infinite concentration) | Fit LogAC50 [1]
COc1ccc(/C=C(\NC(=O)c2ccc(C)cc2)C(=O)Nc2ccc(C(=O)O)cc2)cc1 [Compound 160] | 11.2 µM | 42 | 2.1 | 4.095 | −2.4804% | – | –
O=S(=O)(c1ccccc1)N1CCCC(c2nc(O)c3nnn(Cc4cccc(Cl)c4)c3n2)C1 (stereo not shown) [Compound 161] | 3.98 µM | 42 | 2.1 | 1.1 | −42.9418% | – | –
COc1cccc(NC(=O)c2ccc3c(c2)CCCC3)c1 [Compound 162] | 5.62 µM | 42 | 2.1 | 2.2526 | −31.8121% | – | –
CN(C)CCNc1ncnc2sc(-c3ccccc3)cc12 [Compound 163] | 10 µM | 42 | 2.2 | 4.045 | −0.8551% | – | –
CCCN1C2CCCC1CC(NC(=O)c1cccc([N+](=O)[O-])c1)C2 (stereo not shown) [Compound 164] | – | 42 | 2.1 | 4.5045 | 0.8371% | 91.825% | −5
O=C(NCCc1ccc(F)cc1)N[C@@H](Cc1ccccc1)C(=O)O [Compound 165] | 11.2 µM | 42 | 2.1 | 4.5045 | −20.12% | – | –
Cl.O=C(CN1CCOCC1)NCc1cc([N+](=O)[O-])ccc1O [Compound 166] | 12.6 µM | 42 | 2.1 | 1.3987 | 10.3691% | – | –
COc1cc(Cl)cc(CN2CCC(CCC(=O)NC3CC3)CC2)c1OC [Compound 167] | 7.08 µM | 42 | 2.1 | 1.7885 | −38.2233% | – | –
COc1ccccc1C(=O)NCCOc1ccc(C(C)(C)C)cc1 [Compound 168] | 8.91 µM | 42 | 2.2 | 1.9673 | −0.7805% | – | –
COc1nccc(NCc2ccccc2)c1C#N [Compound 169] | 10 µM | 42 | 2.1 | 4.4495 | −19.7104% | – | –
Cc1ccc(-c2csnn2)cc1 [Compound 170] | 10 µM | 42 | 2.1 | 4.4495 | 3.4732% | – | –
Cc1nc2c(cnn2-c2ccccc2)c(=O)n1/N=C/c1ccccc1 [Compound 171] | 10 µM | 42 | 2.2 | 3.132 | 9.9159% | – | –
CN(C)/C(S)=N/c1cccc(C(F)(F)F)c1 [Compound 172] | 10 µM | 42 | 2.2 | 2.3332 | 8% | – | –
CC(C)(C)N/C=C(\C#N)S(=O)(=O)c1ccc(Br)cc1 [Compound 173] | 11.2 µM | 42 | 2.2 | 0.9 | 7.5952% | – | –
O=C(O)CCCNC(=O)CCn1nnc2ccccc2c1=O [Compound 174] | 11.2 µM | 42 | 2.1 | 1.8579 | −20.386% | – | –
CCNC(=O)COC(=O)c1cc(-c2ccco2)nc2ccccc12 [Compound 175] | 5.62 µM | 42 | 2.1 | 1.3443 | −62.687% | – | –
COc1cccc(N2C(=O)CC(N3CCc4ccccc4C3)C2=O)c1 (stereo not shown) [Compound 176] | 10 µM | 42 | 2.1 | 4.9549 | −19.4361% | – | –
COC(=O)C1=NNC2(C)C(=O)N(c3ccc(C)cc3)C(=O)C12 (stereo not shown) [Compound 177] | 10 µM | 42 | 2.2 | 4.9549 | 0.9153% | – | –
CCCOc1nc(SCCC)nc2c1cnn2-c1ccccc1 [Compound 178] | 11.2 µM | 42 | 2.1 | 1.1341 | −22.6542% | – | –
